# Results taken from patent US9763445B2, “Safened herbicidal compositions comprising a pyridine carboxylic acid herbicide” (Dow AgroSciences, LLC, priority 2014, dated 2017).
# Key:
# spring barley (HORVS) = assay: Postemergence greenhouse trial, % visual injury on spring barley; format: in vivo, Hordeum vulgare; details: HORVS; for % visual injury, Ob: CQC-m 0
# Outline: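 Greenhouse crops at second to third true leaf stage sprayed postemergence at 187 L/ha with herbicide (g ae/ha) plus safener (g ai/ha) in acetone/DMSO diluted into 1.5% v/v Agri-dex. Injury scored visually versus solvent-blank controls after 20-22 d, 0 (none) to 100% (complete kill); expected mixture effects by Colby's equation.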
# [1] = tested on: purple deadnettle (LAMPU); assay: Postemergence greenhouse trial, % visual injury on purple deadnettle; format: in vivo, Lamium purpureum; details: LAMPU, CQC-m 0
# Method: (§1) Seeds of the desired test plant species were planted in Sun Gro MetroMix® 306 planting mixture, which typically has a pH of 6.0 to 6.8 and an organic matter content of about 30 percent, in plastic pots with a surface area of 103.2 square centimeters (cm^2). When required to ensure good germination and healthy plants, a fungicide treatment and/or other chemical or physical treatment was applied. The plants were grown for 7-36 days (d) in a greenhouse with an approximate 14-hour (h) photoperiod which was maintained at about 23° C. during the day and 22° C. during the night. Nutrients and water were added on a regular basis and supplemental lighting was provided with overhead metal halide 1000-Watt lamps as necessary. The plants were employed for testing when they reached the second or third true leaf stage.
# (§2) Weighed amounts of technical material were dissolved in a volume of 97:3 volume per volume (v/v) acetone/dimethyl sulfoxide (DMSO) to stock solutions. […] The concentrated stock solutions were diluted with an aqueous mixture of 1.5% v/v of Agri-dex crop oil concentrate to provide the appropriate application rates. Compound requirements are based upon a 12 milliliter (mL) application volume at a rate of 187 liters per hectare (L/ha). Stocks solutions of the safeners were prepared following the same procedure. Spray solutions of the safeners and experimental compound mixtures were prepared by adding the stock solutions to the appropriate amount of dilution solution to form a 12 mL spray solution in two-way combinations. Formulated compounds were applied to the plant material with an overhead Mandel track sprayer equipped with 8002E nozzles calibrated to deliver 187 L/ha over an application area of 0.503 square meters (m^2) at a spray height of 18 inches (43 centimeters (cm)) above average plant canopy. Control plants were sprayed in the same manner with the solvent blank. All herbicide application (component a) rates are in g ae/ha and all safener (component b) rates are in g ai/ha.
# (§3) The treated plants and control plants were placed in a greenhouse as described above and watered by sub-irrigation to prevent wash-off of the test compounds. After 20-22 d, the condition of the test plants as compared with that of the control plants was determined visually and scored on a scale of 0 to 100 percent where 0 corresponds to no injury and 100 corresponds to complete kill. […] Colby's equation was used to determine the herbicidal effects expected from the mixtures. […]
# pigweed (AMARE) = assay: Postemergence greenhouse trial, % visual injury on pigweed; format: in vivo, Amaranthus retroflexus; details: Amaranthus retroflexus, post-emergence, AMARE, CQC-m 0, read-out: % visual injury, Ob
# Outline: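 Postemergence greenhouse spray (187 L/ha, 1.5% v/v Agri-dex in water, acetone/DMSO stocks) on plants at second–third true leaf stage, ~23/22 °C, 14 h photoperiod; herbicides in g ae/ha, safener cloquintocet-mexyl in g ai/ha. Visual injury 0–100% versus solvent-blank controls after 20–22 d; Colby's equation gave expected mixture effects.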
# Russian thistle (SASKR) = assay: Postemergence greenhouse trial, % visual injury on Russian thistle; format: in vivo, Salsola kali; details: SASKR; for % visual injury, Ob: CQC-m 0
# wild mustard (SINAR) = assay: Postemergence greenhouse trial, % visual injury on wild mustard; format: in vivo, Sinapis arvensis; details: SINAR; for pest or weed control at 4.38 g/ha / pest or weed control at 8.75 g/ha / pest or weed control at 17.5 g/ha / pest or weed control at 35 g/ha / pest or weed control at 70 g/ha: Brassica, post-emergence, CQC-m 0, read-out: % visual injury, Ob; for pest or weed control at 4.38 g/ha: compound 4.380 g/ha; for pest or weed control at 8.75 g/ha: compound 8.75 g/ha; for pest or weed control at 17.5 g/ha: compound 17.5 g/ha; for pest or weed control at 35 g/ha: compound 35 g/ha; for pest or weed control at 70 g/ha: compound 70 g/ha
# Outline: (§4)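 Herbicide rates g ae/ha, safener (cloquintocet-mexyl) rates g ai/ha; spray carrier 1.5% v/v crop oil concentrate, 187 L/ha, 2nd–3rd leaf stage. Rating: visual % injury at 20-22 d.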
# kochia (KCHSC) = assay: Postemergence greenhouse trial, % visual injury on kochia; format: in vivo, Kochia scoparia; details: KCHSC; for pest or weed control at 4.38 g/ha / pest or weed control at 8.75 g/ha / pest or weed control at 17.5 g/ha / pest or weed control at 35 g/ha / pest or weed control at 70 g/ha: Bassia scoparia, post-emergence, CQC-m 0, read-out: % visual injury, Ob; for pest or weed control at 4.38 g/ha: compound 4.380 g/ha; for pest or weed control at 8.75 g/ha: compound 8.75 g/ha; for pest or weed control at 17.5 g/ha: compound 17.5 g/ha; for pest or weed control at 35 g/ha: compound 35 g/ha; for pest or weed control at 70 g/ha: compound 70 g/ha
# Outline: as §4
# [2] = tested on: bird's-eye speedwell (VERPE); assay: Postemergence greenhouse trial, % visual injury on bird's-eye speedwell; format: in vivo, Veronica persica; details: VERPE; for % visual injury, Ob: CQC-m 0
# Method: as §1, §2, §3
# [3] = compound 8 4.380 + CQC-m 0 g/ha
smiles,measurement,setting,value
CCCCOC(=O)c1nc(-c2ccc3cc[nH]c3c2F)c(F)c(N)c1Cl [compound 9],"% visual injury, Ob",spring barley (HORVS); compound 4.380 g/ha,10%
same,"% visual injury, Ob",spring barley (HORVS); compound 8.75 g/ha,20%
same,"% visual injury, Ob",spring barley (HORVS); compound 17.5 g/ha,30%
same,"% visual injury, Ob",spring barley (HORVS); compound 35 g/ha,40%
same,"% visual injury, Ob",spring barley (HORVS); compound 70 g/ha,50%
same,"% visual injury, Ob",[1]; compound 4.380 g/ha,83%
same,"% visual injury, Ob",[1]; compound 8.75 g/ha,90%
same,"% visual injury, Ob",[1]; compound 17.5 g/ha,100%
same,"% visual injury, Ob",[1]; compound 35 g/ha,100%
same,"% visual injury, Ob",[1]; compound 70 g/ha,100%
same,pest or weed control at 4.38 g/ha,pigweed (AMARE); compound 4.380 g/ha,10%
same,pest or weed control at 8.75 g/ha,pigweed (AMARE); compound 8.75 g/ha,20%
same,pest or weed control at 17.5 g/ha,pigweed (AMARE); compound 17.5 g/ha,50%
same,pest or weed control at 70 g/ha,pigweed (AMARE); compound 70 g/ha,100%
same,"% visual injury, Ob",Russian thistle (SASKR); compound 4.380 g/ha,65%
same,"% visual injury, Ob",Russian thistle (SASKR); compound 8.75 g/ha,70%
same,"% visual injury, Ob",Russian thistle (SASKR); compound 17.5 g/ha,80%
same,"% visual injury, Ob",Russian thistle (SASKR); compound 35 g/ha,85%
same,"% visual injury, Ob",Russian thistle (SASKR); compound 70 g/ha,87%
same,pest or weed control at 4.38 g/ha,wild mustard (SINAR),93%
same,pest or weed control at 8.75 g/ha,wild mustard (SINAR),95%
same,pest or weed control at 17.5 g/ha,wild mustard (SINAR),95%
same,pest or weed control at 35 g/ha,wild mustard (SINAR),100%
same,pest or weed control at 70 g/ha,wild mustard (SINAR),100%
same,pest or weed control at 4.38 g/ha,kochia (KCHSC),60%
same,pest or weed control at 8.75 g/ha,kochia (KCHSC),60%
same,pest or weed control at 17.5 g/ha,kochia (KCHSC),85%
same,pest or weed control at 35 g/ha,kochia (KCHSC),100%
same,pest or weed control at 70 g/ha,kochia (KCHSC),100%
COC(=O)c1nc(-c2ccc3cc[nH]c3c2F)c(F)c(N)c1OC [compound 12],"% visual injury, Ob",spring barley (HORVS); compound 4.380 g/ha,18%
same,"% visual injury, Ob",spring barley (HORVS); compound 8.75 g/ha,23%
same,"% visual injury, Ob",spring barley (HORVS); compound 17.5 g/ha,37%
same,"% visual injury, Ob",spring barley (HORVS); compound 35 g/ha,47%
same,"% visual injury, Ob",spring barley (HORVS); compound 70 g/ha,60%
same,"% visual injury, Ob",[1]; compound 4.380 g/ha,60%
same,"% visual injury, Ob",[1]; compound 8.75 g/ha,75%
same,"% visual injury, Ob",[1]; compound 17.5 g/ha,80%
same,"% visual injury, Ob",[1]; compound 35 g/ha,90%
same,"% visual injury, Ob",[1]; compound 70 g/ha,97%
same,"% visual injury, Ob",Russian thistle (SASKR); compound 4.380 g/ha,10%
same,"% visual injury, Ob",Russian thistle (SASKR); compound 8.75 g/ha,33%
same,"% visual injury, Ob",Russian thistle (SASKR); compound 17.5 g/ha,52%
same,"% visual injury, Ob",Russian thistle (SASKR); compound 35 g/ha,72%
same,"% visual injury, Ob",Russian thistle (SASKR); compound 70 g/ha,88%
same,pest or weed control at 4.38 g/ha,kochia (KCHSC),15%
same,pest or weed control at 8.75 g/ha,kochia (KCHSC),62%
same,pest or weed control at 17.5 g/ha,kochia (KCHSC),82%
same,pest or weed control at 35 g/ha,kochia (KCHSC),95%
same,pest or weed control at 70 g/ha,kochia (KCHSC),95%
COC(=O)c1nc(-c2ccc3cc[nH]c3c2F)c(F)c(N)c1Cl [compound 8],"% visual injury, observed (Ob)",spring barley (HORVS); [3],12%
same,"% visual injury, observed (Ob)",spring barley (HORVS); compound 8 8.75 + CQC-m 0 g/ha,18%
same,"% visual injury, observed (Ob)",spring barley (HORVS); compound 8 17.5 + CQC-m 0 g/ha,31%
same,"% visual injury, observed (Ob)",spring barley (HORVS); compound 8 35 + CQC-m 0 g/ha,43%
same,"% visual injury, observed (Ob)",spring barley (HORVS); compound 8 70 + CQC-m 0 g/ha,53%
same,"% visual injury, observed (Ob)",[2]; [3],83%
same,"% visual injury, observed (Ob)",[2]; compound 8 8.75 + CQC-m 0 g/ha,92%
same,"% visual injury, observed (Ob)",[2]; compound 8 17.5 + CQC-m 0 g/ha,96%
same,"% visual injury, observed (Ob)",[2]; compound 8 35 + CQC-m 0 g/ha,98%
same,"% visual injury, observed (Ob)",[2]; compound 8 70 + CQC-m 0 g/ha,100%
same,"% visual injury, observed (Ob)",Russian thistle (SASKR); [3],61%
same,"% visual injury, observed (Ob)",Russian thistle (SASKR); compound 8 8.75 + CQC-m 0 g/ha,69%
same,"% visual injury, observed (Ob)",Russian thistle (SASKR); compound 8 17.5 + CQC-m 0 g/ha,83%
same,"% visual injury, observed (Ob)",Russian thistle (SASKR); compound 8 35 + CQC-m 0 g/ha,85%
same,"% visual injury, observed (Ob)",Russian thistle (SASKR); compound 8 70 + CQC-m 0 g/ha,90%
same,"% visual injury, observed (Ob)",wild mustard (SINAR); [3],76%
same,"% visual injury, observed (Ob)",wild mustard (SINAR); compound 8 8.75 + CQC-m 0 g/ha,82%
same,"% visual injury, observed (Ob)",wild mustard (SINAR); compound 8 17.5 + CQC-m 0 g/ha,96%
same,"% visual injury, observed (Ob)",wild mustard (SINAR); compound 8 35 + CQC-m 0 g/ha,99%
same,"% visual injury, observed (Ob)",wild mustard (SINAR); compound 8 70 + CQC-m 0 g/ha,98%
same,"% visual injury, observed (Ob)",kochia (KCHSC); [3],69%
same,"% visual injury, observed (Ob)",kochia (KCHSC); compound 8 8.75 + CQC-m 0 g/ha,77%
same,"% visual injury, observed (Ob)",kochia (KCHSC); compound 8 17.5 + CQC-m 0 g/ha,81%
same,"% visual injury, observed (Ob)",kochia (KCHSC); compound 8 35 + CQC-m 0 g/ha,95%
same,"% visual injury, observed (Ob)",kochia (KCHSC); compound 8 70 + CQC-m 0 g/ha,95%
CO/C=N/c1c(F)c(-c2ccc3cc[nH]c3c2F)nc(C(=O)OC)c1Cl [compound 10],"% visual injury, Ob",spring barley (HORVS); compound 4.380 g/ha,0%
same,"% visual injury, Ob",spring barley (HORVS); compound 8.75 g/ha,10%
same,"% visual injury, Ob",spring barley (HORVS); compound 17.5 g/ha,20%
same,"% visual injury, Ob",spring barley (HORVS); compound 35 g/ha,20%
same,"% visual injury, Ob",spring barley (HORVS); compound 70 g/ha,40%
same,"% visual injury, Ob",[2]; compound 4.380 g/ha,70%
same,"% visual injury, Ob",[2]; compound 8.75 g/ha,85%
same,"% visual injury, Ob",[2]; compound 17.5 g/ha,90%
same,"% visual injury, Ob",[2]; compound 35 g/ha,100%
same,"% visual injury, Ob",[2]; compound 70 g/ha,100%
same,"% visual injury, Ob",Russian thistle (SASKR); compound 4.380 g/ha,70%
same,"% visual injury, Ob",Russian thistle (SASKR); compound 8.75 g/ha,80%
same,"% visual injury, Ob",Russian thistle (SASKR); compound 17.5 g/ha,87%
same,"% visual injury, Ob",Russian thistle (SASKR); compound 35 g/ha,90%
same,"% visual injury, Ob",Russian thistle (SASKR); compound 70 g/ha,93%
same,pest or weed control at 4.38 g/ha,wild mustard (SINAR),90%
same,pest or weed control at 8.75 g/ha,wild mustard (SINAR),93%
same,pest or weed control at 17.5 g/ha,wild mustard (SINAR),97%
same,pest or weed control at 35 g/ha,wild mustard (SINAR),100%
same,pest or weed control at 70 g/ha,wild mustard (SINAR),100%
same,pest or weed control at 4.38 g/ha,kochia (KCHSC),80%
same,pest or weed control at 8.75 g/ha,kochia (KCHSC),80%
same,pest or weed control at 17.5 g/ha,kochia (KCHSC),100%
same,pest or weed control at 35 g/ha,kochia (KCHSC),100%
same,pest or weed control at 70 g/ha,kochia (KCHSC),100%
